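A five-concentration, 48-hour dose response in 96-well plates underlies each endpoint, interpolated linearly between surrounding concentrations. GI50 marks 50% less growth.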 The source made the active and inactive calls. Cut-off read from the data, not from the text of the source: active = GI50 up to about 1.1 µM and inactive = higher.
Key:
Experiment in all cases: inhibition of tumour cell growth, NCI panel, 48 h
A549 = tested on: A549
COLO 205 = tested on: COLO 205
EKVX = tested on: EKVX
HOP-92 = tested on: HOP-92
HT-29 = tested on: HT-29
Hs-578T = tested on: Hs-578T
IGROV-1 = tested on: IGROV-1
LOX IMVI = tested on: LOX IMVI
MDA-MB-231 = tested on: MDA-MB-231
NCI-H226 = tested on: NCI-H226
NCI-H522 = tested on: NCI-H522
NCI/ADR-RES = tested on: NCI/ADR-RES
OVCAR-5 = tested on: OVCAR-5
RXF 393 = tested on: RXF 393
SF-539 = tested on: SF-539
SK-MEL-2 = tested on: SK-MEL-2
SK-MEL-5 = tested on: SK-MEL-5
SN12C = tested on: SN12C
T47D = tested on: T47D
UACC-62 = tested on: UACC-62

Structure (SMILES)	GI50 (A549)	GI50 (COLO 205)	GI50 (EKVX)	GI50 (HOP-92)	GI50 (HT-29)	GI50 (Hs-578T)	GI50 (IGROV-1)	GI50 (LOX IMVI)	GI50 (MDA-MB-231)	GI50 (NCI-H226)	GI50 (NCI-H522)	GI50 (NCI/ADR-RES)	GI50 (OVCAR-5)	GI50 (RXF 393)	GI50 (SF-539)	GI50 (SK-MEL-2)	GI50 (SK-MEL-5)	GI50 (SN12C)	GI50 (T47D)	GI50 (UACC-62)
COC(=O)c1ccccc1C1=C([N+](=O)[O-])C(c2ccccc2)C(C#N)=C(N)O1 (stereo not given)	> 100 µM (inactive)	50.8 µM (inactive)	10.5 µM (inactive)	50.1 µM (inactive)	96.6 µM (inactive)	18.1 µM (inactive)	> 100 µM (inactive)	> 100 µM (inactive)	> 100 µM (inactive)	> 100 µM (inactive)	15 µM (inactive)	> 100 µM (inactive)	> 100 µM (inactive)	30.2 µM (inactive)	> 100 µM (inactive)	> 100 µM (inactive)	> 100 µM (inactive)	> 100 µM (inactive)	37.7 µM (inactive)	30.7 µM (inactive)
Cc1c(Cl)c(C)c(Cl)c(O)c1Cl	21.2 µM (inactive)	60 µM (inactive)	26.4 µM (inactive)	19.1 µM (inactive)	48.5 µM (inactive)	19.9 µM (inactive)	44.3 µM (inactive)	26.2 µM (inactive)	27 µM (inactive)	15.1 µM (inactive)	17.9 µM (inactive)	22.2 µM (inactive)	35.2 µM (inactive)	26 µM (inactive)	29 µM (inactive)	13.2 µM (inactive)	15.3 µM (inactive)	24.2 µM (inactive)	24.8 µM (inactive)	16.7 µM (inactive)
CC(=O)N(C(=O)CC(=O)NNCc1ccccc1Cl)c1ccc(Cl)cc1	> 10 µM (inactive)	> 10 µM (inactive)	4.99 µM (inactive)	> 10 µM (inactive)	> 10 µM (inactive)	> 10 µM (inactive)	> 10 µM (inactive)	> 10 µM (inactive)	> 10 µM (inactive)	> 10 µM (inactive)	> 10 µM (inactive)	> 10 µM (inactive)	> 10 µM (inactive)	> 10 µM (inactive)	> 10 µM (inactive)	> 10 µM (inactive)	> 10 µM (inactive)	> 10 µM (inactive)	8.11 µM (inactive)	> 10 µM (inactive)
O=C(C[n+]1ccccc1)N/N=C(\Cc1nc2ccc([N+](=O)[O-])cc2nc1O)C(=O)Nc1cc(Cl)c(Cl)cc1Cl	> 100 µM (inactive)	76.2 µM (inactive)	> 100 µM (inactive)	> 100 µM (inactive)	> 100 µM (inactive)	> 100 µM (inactive)	> 100 µM (inactive)	60.1 µM (inactive)	41.9 µM (inactive)	50.5 µM (inactive)	61.8 µM (inactive)	60.1 µM (inactive)	> 100 µM (inactive)	> 100 µM (inactive)	> 100 µM (inactive)	> 100 µM (inactive)	95.1 µM (inactive)	> 100 µM (inactive)	68.7 µM (inactive)	> 100 µM (inactive)
CN(C)c1ccc(/C=N\NC(=O)CSCC(=O)N/N=C/c2ccc(N(C)C)cc2)cc1	71.9 µM (inactive)	48 µM (inactive)	44.5 µM (inactive)	> 100 µM (inactive)	78.5 µM (inactive)	20.6 µM (inactive)	19.4 µM (inactive)	33.2 µM (inactive)	13.7 µM (inactive)	34.2 µM (inactive)	27.6 µM (inactive)	36 µM (inactive)	60.5 µM (inactive)	24.9 µM (inactive)	37.3 µM (inactive)	29.9 µM (inactive)	30 µM (inactive)	31.2 µM (inactive)	23.8 µM (inactive)	35.1 µM (inactive)
CCc1n[nH]c(=O)n1/N=C/c1ccc(C)cc1	> 100 µM (inactive)	> 100 µM (inactive)	3.41 µM (inactive)	> 100 µM (inactive)	54.3 µM (inactive)	3.84 µM (inactive)	91 µM (inactive)	69.8 µM (inactive)	> 100 µM (inactive)	70.8 µM (inactive)	> 100 µM (inactive)	> 100 µM (inactive)	> 100 µM (inactive)	> 100 µM (inactive)	> 100 µM (inactive)	> 100 µM (inactive)	> 100 µM (inactive)	> 100 µM (inactive)	> 100 µM (inactive)	60.7 µM (inactive)
CN(C)CCC(=O)N1C/C(=C\c2ccc(Cl)c(Cl)c2)C(=O)/C(=C/c2ccc(Cl)c(Cl)c2)C1	0.531 µM (active)	0.223 µM (active)	0.565 µM (active)	0.394 µM (active)	0.188 µM (active)	0.257 µM (active)	0.434 µM (active)	0.1 µM (active)	0.127 µM (active)	0.705 µM (active)	0.2 µM (active)	0.147 µM (active)	0.731 µM (active)	0.269 µM (active)	0.274 µM (active)	1.63 µM (inactive)	0.453 µM (active)	0.207 µM (active)	0.471 µM (active)	0.608 µM (active)
Oc1nc(S)nc(SCc2c(Cl)c(Cl)c(Cl)c(Cl)c2Cl)n1	> 96.4 µM (inactive)	18.2 µM (inactive)	40.9 µM (inactive)	77.8 µM (inactive)	28.1 µM (inactive)	> 59.2 µM (inactive)	69 µM (inactive)	> 63.1 µM (inactive)	> 100 µM (inactive)	> 69.8 µM (inactive)	18.2 µM (inactive)	> 58.5 µM (inactive)	98.2 µM (inactive)	16.9 µM (inactive)	46.2 µM (inactive)	52.5 µM (inactive)	> 84.1 µM (inactive)	49.5 µM (inactive)	27.9 µM (inactive)	> 92.7 µM (inactive)
Cc1cc(C)nc(NS(=O)(=O)c2ccc(Nc3c4ccccc4nc4ccc(C(=O)Nc5ccc(S(=O)(=O)N=C(N)N)cc5)cc34)cc2)n1	> 100 µM (inactive)	> 100 µM (inactive)	> 100 µM (inactive)	26 µM (inactive)	59.4 µM (inactive)	> 100 µM (inactive)	> 100 µM (inactive)	17 µM (inactive)	81.8 µM (inactive)	> 100 µM (inactive)	65.8 µM (inactive)	> 100 µM (inactive)	> 100 µM (inactive)	50.8 µM (inactive)	> 100 µM (inactive)	> 100 µM (inactive)	97.3 µM (inactive)	97.7 µM (inactive)	38.2 µM (inactive)	> 100 µM (inactive)
CCCOc1ccc(-c2nc(-c3ccc(/N=C/c4ccc(N(CCOS(C)(=O)=O)CCOS(C)(=O)=O)cc4C)cc3)cs2)cc1	4.59 µM (inactive)	2.21 µM (inactive)	17.6 µM (inactive)	24.4 µM (inactive)	17.9 µM (inactive)	29.3 µM (inactive)	20 µM (inactive)	14.9 µM (inactive)	34 µM (inactive)	22.9 µM (inactive)	2.16 µM (inactive)	23.6 µM (inactive)	31.9 µM (inactive)	6.08 µM (inactive)	12.1 µM (inactive)	24.5 µM (inactive)	27 µM (inactive)	16.8 µM (inactive)	26.9 µM (inactive)	5.31 µM (inactive)
FC(F)(F)c1cccc(-c2nc3ccccc3c3c2[C@@]2(N4CCCC4)CCCC[C@@H]32)c1	31.7 µM (inactive)	15.5 µM (inactive)	28.7 µM (inactive)	13.2 µM (inactive)	29.1 µM (inactive)	43.6 µM (inactive)	12 µM (inactive)	18.1 µM (inactive)	18.5 µM (inactive)	51.2 µM (inactive)	13.3 µM (inactive)	> 100 µM (inactive)	34.4 µM (inactive)	38.1 µM (inactive)	37.1 µM (inactive)	17.8 µM (inactive)	15.8 µM (inactive)	40.4 µM (inactive)	76 µM (inactive)	23.5 µM (inactive)
COc1ccc2c(c1)CC[C@@H]1C2CC[C@]2(C)OC(=O)CCC12 (stereo not given in full)	27.9 µM (inactive)	40.3 µM (inactive)	7.73 µM (inactive)	13 µM (inactive)	19.8 µM (inactive)	14.4 µM (inactive)	23.6 µM (inactive)	6.67 µM (inactive)	2.45 µM (inactive)	11.7 µM (inactive)	6.07 µM (inactive)	14.9 µM (inactive)	13.3 µM (inactive)	12.7 µM (inactive)	15.2 µM (inactive)	23.1 µM (inactive)	12.6 µM (inactive)	14.8 µM (inactive)	34.6 µM (inactive)	20.2 µM (inactive)
CCOC(=O)C1=C(N)N2C(=N[C@H]3CCCC[C@@H]32)N=C1	> 100 µM (inactive)	> 100 µM (inactive)	> 100 µM (inactive)	> 100 µM (inactive)	> 100 µM (inactive)	> 100 µM (inactive)	> 100 µM (inactive)	> 100 µM (inactive)	> 100 µM (inactive)	73.6 µM (inactive)	> 100 µM (inactive)	> 100 µM (inactive)	> 100 µM (inactive)	> 100 µM (inactive)	> 100 µM (inactive)	> 100 µM (inactive)	> 100 µM (inactive)	> 100 µM (inactive)	> 100 µM (inactive)	> 100 µM (inactive)
C=CC(COC(=O)C(C)(C)OC(C)=O)c1ccc(OC(=O)C(C)C)c(OC)c1 (stereo not given)	19.8 µM (inactive)	2.46 µM (inactive)	12.7 µM (inactive)	2.73 µM (inactive)	3.27 µM (inactive)	7.46 µM (inactive)	14.1 µM (inactive)	3.17 µM (inactive)	2.64 µM (inactive)	18.2 µM (inactive)	2.23 µM (inactive)	11 µM (inactive)	14.6 µM (inactive)	6.07 µM (inactive)	11.8 µM (inactive)	9.62 µM (inactive)	13.5 µM (inactive)	3.34 µM (inactive)	3.84 µM (inactive)	11.8 µM (inactive)
